“Also recorded” adds a separate entry of the source.
What was measured:
[1] = Solution stability of working standards at ambient temperature, intraday and interday, HPLC; format: physicochemical; conditions: for Solution stability: intraday and interday analysis
Method: Stability samples were analyzed in triplicate.
Experiments were performed in triplicate, and the results are summarized below in Table 8.

[2] = target: T1, CYP3A2 (Rattus norvegicus, UniProt P05183); assay: Inhibition of dexamethasone 6β-hydroxylation (CYP3A2 activity) by aspirin in rat liver microsomes, HPLC; format: in vitro ADME; conditions: for Clint: Vmax/Km; for Vmax: n = 3
T1 construct: tissue Merck; host or cells: pooled liver microsomes from male Sprague Dawley rats
T1 sequence (P05183 1-504): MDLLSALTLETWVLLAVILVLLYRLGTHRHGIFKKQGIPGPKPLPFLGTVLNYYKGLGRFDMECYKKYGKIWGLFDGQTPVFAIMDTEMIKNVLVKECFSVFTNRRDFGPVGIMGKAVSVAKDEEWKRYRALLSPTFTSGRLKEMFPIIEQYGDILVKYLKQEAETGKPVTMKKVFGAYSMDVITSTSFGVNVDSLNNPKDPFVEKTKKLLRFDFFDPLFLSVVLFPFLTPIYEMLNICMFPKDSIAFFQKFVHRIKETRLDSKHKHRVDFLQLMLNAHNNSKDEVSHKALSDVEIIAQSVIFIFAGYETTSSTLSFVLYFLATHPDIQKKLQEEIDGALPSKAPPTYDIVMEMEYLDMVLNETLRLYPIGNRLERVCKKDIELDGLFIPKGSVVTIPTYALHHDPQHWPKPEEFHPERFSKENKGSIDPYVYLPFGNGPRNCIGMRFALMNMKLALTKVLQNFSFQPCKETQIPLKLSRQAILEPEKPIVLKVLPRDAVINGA
Method: Assay development and validation were carried out using a LC-2010A HT Module HPLC system (Shimadzu, Toyko, Japan). […] The chromatographic separation was performed at 25 °C and at a flow rate of 0.6 mL/min. A 10 µL solution volume was injected for HPLC analysis, and all the components were detected at the 243 nm wavelength. Table 11 provides information concerning efficiency (N), where N = 5.54 × (tR/W½) and W½ = width at half peak height; plate height (H), where H(cm) = column length/N; asymmetry factor (AsF), where AsF = B/A, and A is the distance from the leading edge of the peak to the midpoint of the peak measured at 10% of peak height, and B is the distance from the midpoint of the peak to the trailing edge of the peak measured at 10% of the peak height; and resolution (Rs), where Rs = 2∆tR/0.5(W1 + W2), and W is the width at the peak base.
Ice-cold-grade acetonitrile containing 15 µM 4-hydroxyoctanophenone (as an internal standard) was added to terminate the reaction. […] The polar extracts were evaporated to dryness, and the residues were dissolved in the mobile phase (70% acetonitrile and 30% water, v/v) and made up to 1000 µL in volume. An amount of 10 µL of each sample was injected into the HPLC instrument for analysis.
Data were analysed using Microsoft Excel 2010 software for validation and the kinetic parameters. All results are shown as mean ± S.D. The least-square regression analysis was performed to calculate the concentration of the metabolite produced by the CYP reaction. Secondary Lineweaver–Burk plots and Michaelis–Menten plots were plotted to find kinetic parameters such as Ki, Vmax, Km, Clint, and α^,. Inhibition was assumed to be competitive based on the obtained data and based on a visual inspection of the Lineweaver–Burk plot. […] Km values were used to calculate the percentage of inhibition.

[3] = substrate: C[C@@H]1C[C@H]2[C@@H]3CCC4=CC(=O)C=C[C@]4(C)[C@@]3(F)[C@@H](O)C[C@]2(C)[C@@]1(O)C(=O)CO; assay: cells, lysate or membranes named; conditions: other: 0 µM aspirin (no inhibitor), rat liver microsomes 0.5 mg/mL, n = 3; pH 7.4; 37.0 °C
Method: Data were analysed using Microsoft Excel 2010 software for validation and the kinetic parameters. All results are shown as mean ± S.D. The least-square regression analysis was performed to calculate the concentration of the metabolite produced by the CYP reaction. Secondary Lineweaver–Burk plots and Michaelis–Menten plots were plotted to find kinetic parameters such as Ki, Vmax, Km, Clint, and α^,. […] Km values were used to calculate the percentage of inhibition.

[4] = male, rat, liver microsomes, pH 7.4, probe dexamethasone (6β-hydroxylation), 10, 20, 30, 40 and 50 µM

With `C[C@@H]1C[C@H]2[C@@H]3CCC4=CC(=O)C=C[C@]4(C)[C@@]3(F)[C@@H](O)C[C@]2(C)[C@@]1(O)C(=O)CO` [Dexamethasone] the “% Recovery” value ([1]; Interday 1, 40 µM) was 80.04%, the “% Recovery” value ([1]; Interday 1, 110 µM) was 85.81% and the “% Recovery” value ([1]; Interday 1, 185 µM) was 98.26%. The “% Recovery” value ([1]; Interday 2, 40 µM) was 87.31%, the “% Recovery” value ([1]; Interday 2, 110 µM) was 91.30% and the “% Recovery” value ([1]; Interday 2, 185 µM) was 104.78%. The “% Recovery” value ([1]; Interday 3, 40 µM) was 85.29%, the “% Recovery” value ([1]; Interday 3, 110 µM) was 82.36% and the “% Recovery” value ([1]; Interday 3, 185 µM) was 101.20%. The “% Recovery” value ([1]; intraday 0 h, 40 µM) was 88.51%, the “% Recovery” value ([1]; intraday 0 h, 110 µM) was 80.58% and the “% Recovery” value ([1]; intraday 0 h, 185 µM) was 95.66%. For the same molecule, the “% Recovery” value ([1]; intraday 5 h, 40 µM) was 80.50%, the “% Recovery” value ([1]; intraday 5 h, 110 µM) was 84.03% and the “% Recovery” value ([1]; intraday 5 h, 185 µM) was 109.49%. The “% Recovery” value ([1]; intraday 10 h, 40 µM) was 80.80%, the “% Recovery” value ([1]; intraday 10 h, 110 µM) was 84.43% and the “% Recovery” value ([1]; intraday 10 h, 185 µM) was 110.03%. For the same molecule, the Solution stability [1] was “stable for up to three days”.

`CC(=O)Oc1ccccc1C(=O)O` [Aspirin, acetylsalicylic acid] gave an IC50 [2] of 191 µM, a á ([2]; 50 µM aspirin) of 1.03 ± 0.01 and a á ([2]; 100 µM aspirin) of 1.02 ± 0.06. The á ([2]; 200 µM aspirin) was 1.04 ± 0.01, the “Mode of inhibition of CYP3A2” value ([2]; Lineweaver-Burk plot, rat liver microsomes) was “competitively inhibits; also recorded: competitive inhibitor” and the Clint ([2]; with 50 µM aspirin) was 0.0005 ± 4.00 × 10^−6 µM^−2∙min^−1. For the same molecule, the Clint ([2]; with 100 µM aspirin) was 0.0005 ± 5.00 × 10^−5 µM^−2∙min^−1, the Clint ([2]; with 200 µM aspirin) was 0.0004 ± 1.00 × 10^−5 µM^−2∙min^−1 and the “Alpha prime (α') values” ([2]; aspirin 50, 100 and 200 µM) was “greater than 1.0”. The inhibition at 40 min, 50 µM [2, 4] was 12.4 ± 1.2%, the inhibition at 40 min, 100 µM [2, 4] was 23.3 ± 3.3% and the inhibition at 40 min, 200 µM [2, 4] was 53.6 ± 1.76%. The Ki ([2]; read-out: Ki (inhibition constant)) was 95.5 µM, the “Strength of inhibition of CYP3A2 isoform activity” value ([2]; weak if IC50 more than 50 µM) was “weak inhibitory effect” and the Vmax ([2]; with 50 µM aspirin) was 0.0123 ± 1.15 × 10^−4 µM^−1∙min^−1. For the same molecule, the Vmax ([2]; with 100 µM aspirin) was 0.0127 ± 7.94 × 10^−4 µM^−1∙min^−1 and the Vmax ([2]; with 200 µM aspirin) was 0.0123 ± 1.73 × 10^−4 µM^−1∙min^−1.

For `C[C@@H]1C[C@H]2[C@@H]3C[C@@H](O)C4=CC(=O)C=C[C@]4(C)[C@@]3(F)[C@@H](O)C[C@]2(C)[C@@]1(O)C(=O)CO` [6β-hydroxydexamethasone, 6β-Hydroxydexamethasone], the “% Recovery” value ([1]; Interday 1, 0.3 µM) was 89.49%, the “% Recovery” value ([1]; Interday 1, 0.5 µM) was 92.64% and the “% Recovery” value ([1]; Interday 1, 0.85 µM) was 84.06%. The “% Recovery” value ([1]; Interday 2, 0.3 µM) was 105.46%, the “% Recovery” value ([1]; Interday 2, 0.5 µM) was 94.15% and the “% Recovery” value ([1]; Interday 2, 0.85 µM) was 81.57%. The “% Recovery” value ([1]; Interday 3, 0.3 µM) was 106.90%, the “% Recovery” value ([1]; Interday 3, 0.5 µM) was 92.10% and the “% Recovery” value ([1]; Interday 3, 0.85 µM) was 80.51%. The “% Recovery” value ([1]; intraday 0 h, 0.3 µM) was 98.18%, the “% Recovery” value ([1]; intraday 0 h, 0.5 µM) was 94.82% and the “% Recovery” value ([1]; intraday 0 h, 0.85 µM) was 99.34%. The “% Recovery” value ([1]; intraday 5 h, 0.3 µM) was 97.22%, the “% Recovery” value ([1]; intraday 5 h, 0.5 µM) was 87.58% and the “% Recovery” value ([1]; intraday 5 h, 0.85 µM) was 90.45%. The “% Recovery” value ([1]; intraday 10 h, 0.3 µM) was 88.89%, the “% Recovery” value ([1]; intraday 10 h, 0.5 µM) was 87.75% and the “% Recovery” value ([1]; intraday 10 h, 0.85 µM) was 92.98%. The Solution stability [1] was “stable”.

B1: CYP3A2 (Rattus norvegicus) (protein)
chain: T1 sequence (P05183 1-504)
For B1, the Km [3] was 21.23 ± 0.51 µM.
